# According to patent US11673880B2, “Solid state forms of ivosidenib” (ASSIA CHEMICAL INDUSTRIES LTD., priority 2017, dated 2023):
# Legend:
# Assay type in all cases: physicochemical
# [1] = Stability and flowability of the solid form (statement, no method given)
# [2] = Thermogravimetric analysis (TGA) of Forms T14 and T15; conditions: temperature changed from 27.1° C. to 170° C.
# Procedure: Procedure for Thermo Gravimetric Analysis (TGA) for Forms T14 and T15:
# Thermogravimetric analysis was conducted on a TA instrument Q500 thermogravimetric analyzer. About 9.4 mg sample was placed into a tared TGA crucible and placed into a TGA furnace. The furnace was heated under nitrogen at a heating rate of 10° C./min up to 250° C.
# [3] = Karl Fischer water content
# Procedure: Water content analysis was performed on Metrohm 890 Titando instrument. About 100 mg sample was added to the titrator, the water content is measured in % w/w by measuring the amount of iodine consumed as a result of reaction with water in the sample.
Compound,flowability [1],stability of the crystalline form [1],weight loss of the weight of the sample (TGA) [2],moisture / water content (KF Titration method) [3] [%]
"N#Cc1ccnc(N2C(=O)CC[C@H]2C(=O)N(c2cncc(F)c2)[C@H](C(=O)NC2CC(F)(F)C2)c2ccccc2Cl)c1 [Form T11, Ivosidenib]",very good flowability,stable,,
"N#Cc1ccnc(N2C(=O)CC[C@H]2C(=O)N(c2cncc(F)c2)[C@H](C(=O)NC2CC(F)(F)C2)c2ccccc2Cl)c1 [Form T14, Ivosidenib]",,,about 2.786%,2.7
"N#Cc1ccnc(N2C(=O)CC[C@H]2C(=O)N(c2cncc(F)c2)[C@H](C(=O)NC2CC(F)(F)C2)c2ccccc2Cl)c1 [Form T15, Ivosidenib]",,,about 3.899%,3.39
